From BindingDB's records for doi:10.1016/0960-894X(95)00494-E (1995)

Target: Xaa-Pro dipeptidase (Sus scrofa)
Assay: Inhibitory activity against porcine kidney prolidase

Ki: 270 nM
Structure (SMILES): NCC(=O)[C@@H]1CCC[C@H]1C(=O)O [2-((1R,2R)-2-Carboxy-cyclopentyl)-2-oxo-ethyl-ammonium; chloride]
